Here are results for four compounds from publication PMC9877316, “Identification of a novel P2X7 antagonist using structure-based virtual screening” (Frontiers in Pharmacology, 2023).

In data set [1] the target is tyrosine kinase Syk. The arrangement: method as in Villoutreix et al., 2011. The following applies: ref Villoutreix et al., 2011; cited from earlier work.
Data set [2] concerns tyrosine kinase Syk. On the set-up: method as in Villoutreix et al., 2011. The following applies: antibody displacement assay; ref Villoutreix et al., 2011; cited from earlier work.
A further data set concerns mast cell degranulation. The arrangement: method as in Villoutreix et al., 2011. The following applies: ref Villoutreix et al., 2011; read-out: IC50 for inhibiting mast cell degranulation; cited from earlier work.
In another data set the target is T1, human P2X7 (Homo sapiens, UniProt Q99572).
T1 construct: expressed in transfected cells; host or cells: 1321N1 astrocytoma cells (compounds 1-17); HEK-293 cells stably expressing human P2X7 (gift of E. Adinolfi)
T1 sequence (Q99572 1-595): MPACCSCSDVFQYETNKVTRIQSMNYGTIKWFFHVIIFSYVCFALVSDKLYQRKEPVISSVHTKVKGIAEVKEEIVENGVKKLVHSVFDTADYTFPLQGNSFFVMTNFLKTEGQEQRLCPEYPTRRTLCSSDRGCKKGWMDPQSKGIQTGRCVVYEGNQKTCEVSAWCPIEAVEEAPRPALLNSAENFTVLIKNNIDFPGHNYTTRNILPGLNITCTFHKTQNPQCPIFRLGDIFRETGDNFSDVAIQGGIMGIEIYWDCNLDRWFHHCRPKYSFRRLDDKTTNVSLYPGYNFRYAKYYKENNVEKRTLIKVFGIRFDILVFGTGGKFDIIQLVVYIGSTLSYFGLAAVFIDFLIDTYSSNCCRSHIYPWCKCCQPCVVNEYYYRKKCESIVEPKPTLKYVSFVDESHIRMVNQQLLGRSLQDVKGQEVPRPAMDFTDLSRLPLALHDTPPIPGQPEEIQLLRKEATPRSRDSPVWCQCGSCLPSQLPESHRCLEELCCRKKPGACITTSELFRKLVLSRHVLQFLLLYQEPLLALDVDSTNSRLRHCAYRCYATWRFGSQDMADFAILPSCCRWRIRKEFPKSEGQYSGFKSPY
As to the kind of experiment: ATP-induced YoPro-1 dye uptake assay, human P2X7. It is filed as cell-based. The following applies: for inhibition at 30 µM: 300 µM ATP. The procedure:
(§1) 1321N1 astrocytoma cells and HEK-293 cells were cultured (at 37°C, 5% CO2) in Dulbecco’s modified Eagle’s medium (DMEM/F-12 with Glutamax) supplemented with 10% foetal bovine serum (FBS) and 200 unit/ml of penicillin and streptomycin antibiotics (Fisher Scientific). For stable cell line generation, cells were transfected using FuGene HD Transfection Reagent (Promega) according to the manufacturer’s protocol with plasmids encoding either human P2X4 with a C-terminal (His)10 tag ([Young et al., 2008]), human P2X7 with a C-terminal EYMPME tag (kindly provided by R.A. North) or rat P2X7 C-terminally tagged with a GFP-(His)8 tag, generated by PCR amplification of the coding sequence for rat P2X7 from a pcDNA-based expression vector ([Young et al., 2007]), adding XhoI and EcoRI sites at the 5′- and 3′- ends respectively, followed by restriction digestion and ligation into a zebrafish P2X4-GFP expression vector based on pEGFP-C1 (kindly provided by Eric Gouaux; [Kawate and Gouaux, 2006]) to replace the zebrafish P2X4 coding region with rP2X7. Transfected clones were grown in DMEM/F-12 with Glutamax medium supplemented with G-418 (Geneticin®, Fisher Scientific), 600 μg/ml and 150 μg/ml during selection and maintenance respectively. […] HEK-293 cells stably expressing human P2X7 ([Adinolfi et al., 2010]) were a kind gift from Elena Adinolfi.
(§2) Cells were plated as for the calcium influx assay (Section 2.4). Culture medium was replaced with low divalent cation containing extracellular solution (ECS-LD; 147 mM NaCl, 10 mM HEPES, 13 mM Glucose, .2 mM CaCl2, 2 mM KCl. pH = 7.4 in MilliQ water) and 5 μM Yopro-1. […] The baseline was measured with a BMG Clariostar instrument for 5–10 cycles, followed by addition of ATP (or BzATP) and recording for at least 30 further cycles (approx. 1 min per data point). The collected responses were normalized to the first data-point recorded after ATP addition. The initial gradient of the dye uptake curve was used to calculate the response to ATP.
The antagonist activity of the 17 compounds (applied at 10 µM) was assayed initially on 1321N1 astrocytoma cells stably expressing human P2X4 receptors by measuring the ATP-induced (applied at 1.2 µM) increase in Fluo-4 fluorescence due to calcium influx via P2X4, using 2 µM BX430 as a positive control (Figure 1A). […] The ATP-induced rate of uptake of YoPro-1 dye was measured upon application of at 300 µM ATP, using .1 µM A740003 as a positive control (Figure 1B).
A small library of 16 commercially available compounds was selected according to the presence of the same scaffold as GP-25, (70% similarity, Tanimoto index) and/or presence of at least one functional group we hypothesized could contribute to GP-25 activity (e.g. carboxylic acid, halogen substituent to the aromatic ring, ester, etc.) (Compounds 18–33; Table 1). […] Although the number of compounds tested was limited by their availability via a commercial source, the numerous ‘hits’ allowed for a basic structure-relationship (SAR) analysis.

The next data set addresses T2, rat P2X7 (Rattus norvegicus, UniProt Q64663).
T2 construct: expressed in transfected cells; host or cells: HEK-293 cells stably expressing rat P2X7-GFP (patch clamp)
T2 sequence (Q64663 1-595): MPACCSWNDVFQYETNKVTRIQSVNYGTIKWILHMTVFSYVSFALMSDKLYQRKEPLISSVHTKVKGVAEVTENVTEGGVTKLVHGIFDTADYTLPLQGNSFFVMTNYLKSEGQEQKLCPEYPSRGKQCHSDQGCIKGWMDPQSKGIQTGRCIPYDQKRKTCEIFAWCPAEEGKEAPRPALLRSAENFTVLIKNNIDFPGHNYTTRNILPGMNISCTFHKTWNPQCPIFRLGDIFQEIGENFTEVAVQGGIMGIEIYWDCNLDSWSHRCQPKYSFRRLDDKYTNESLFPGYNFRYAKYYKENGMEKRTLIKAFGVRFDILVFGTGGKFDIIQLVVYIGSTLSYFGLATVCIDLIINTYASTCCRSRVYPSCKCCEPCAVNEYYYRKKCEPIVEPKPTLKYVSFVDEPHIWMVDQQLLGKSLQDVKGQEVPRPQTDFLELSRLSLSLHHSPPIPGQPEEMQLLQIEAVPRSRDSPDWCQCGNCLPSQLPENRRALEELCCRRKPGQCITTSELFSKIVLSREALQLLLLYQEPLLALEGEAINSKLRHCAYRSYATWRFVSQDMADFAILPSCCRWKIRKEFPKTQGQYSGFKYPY
As to the kind of experiment: ATP/BzATP-induced YoPro-1 dye uptake assay, rat P2X7. It is filed as cell-based. To be noted: for inhibition at 30 µM: approx. % inhibition at 30 μM compound, 300 µM ATP, YoPro-1 uptake, rat P2X7-GFP, read-out: % Inhibition at rP2X7. The procedure: as §1, §2
In order to confirm GP-25 as a competitive (orthosteric) antagonist, BzATP concentration-response curves (ranging between 300 μM and .03 µM) were constructed for rat P2X7-GFP in the YoPro-1 uptake assay in the presence of increasing concentrations of GP-25 (Figure 3A).

A further data set is described as follows: Solubility observations. It is filed as physicochemical.
Setting [3] is: P2X7, approx. % inhibition at 30 μM compound, YoPro-1 uptake, 1321N1 (1-17) or HEK (18-33) cells, read-out: % Inhibition at hP2X7.

Each structure is given as a SMILES string. Entries after “also recorded” stand apart in the source; their conditions may differ. Like-named read-outs stand apart in the source and are kept apart here.

What is called Kd is the free concentration of one partner at which half of the binding sites on the other are occupied at equilibrium, for simple one-to-one binding. In general, IC50 refers to the concentration that gives 50% inhibition. Take `CCOC(=O)C1=C(C)NC2=C(C(=O)c3ccccc32)C1c1cc(Br)ccc1OCC(=O)O` (stereo not drawn) [Chembridge ID 6422575, (4-bromo-2-[3-(ethoxycarbonyl)-2-methyl-5-oxo-4,5-dihydro-1H-indeno[1,2-b]pyridin-4-yl]phenoxy) acetic acid]: the Kd at tyrosine kinase Syk [1] is 6.2 µM. The “inhibition of antibody binding” value in the data set on tyrosine kinase Syk [2] is 81%. For the same compound, the IC50 in the data set with mast cell degranulation is ≥ 20 µM.
As usually defined, the inhibition is the drop in the measured response relative to a control, in per cent. For the compound `COC(=O)C1=C(C)NC2=C(C(=O)c3ccccc32)C1c1ccc(-c2cc([N+](=O)[O-])ccc2Cl)o1` (stereo not drawn) [Compound 22], the “reduction in ATP-induced dye uptake at human P2X7” value on human P2X7 (30 µM compound, 300 μM ATP) is on record as “statistically significant reduction”. Moreover, the inhibition at 30 µM on human P2X7 (setting [3]) was 69%; at rat P2X7, < 0%. Further, the “antagonist activity at rat P2X7” value on rat P2X7 (30 µM compound, 300 μM ATP) is “no activity”. Also, the solubility entry in “Solubility observations” (listed as GP-50) is “less soluble than GP-47 or GP-25; also recorded: low solubility”.
Regarding `CCSc1nnc(NC(=O)CSc2nnc3c4ccccc4n(C)c3n2)s1` [Compound 7], the solubility entry in the data set “Solubility observations” is reported as “very low solubility”.
As to `CN1C2=C(C(=O)CCC2)C(c2cc(Cl)ccc2OCC(=O)O)C2=C1CCCC2=O` [Compound 25], the inhibition at 30 µM at human P2X7 (P2X7, 30 µM compound, YoPro-1, read-out: inhibition of response at human P2X7) is ≤ 25%; on human P2X7 (setting [3]), 20%; on rat P2X7, < 0%.
